The text below walks through data of US20210238139A1, “MODULATORS OF TRYPTOPHAN CATABOLISM” (E-Therapeutics PLC, priority 2018, published 2021).

In data set [1] the test system is monocyte-derived dendritic cells. Kind of data set: Cell viability / cytotoxicity in monocyte-derived dendritic cells (ATP, CellTiter Glo). To be noted: 24 h, unit assumed. It is filed as cell-based, human. As for the experimental part:
(§1) Peripheral blood mononuclear cells are isolated from buffy coats from healthy volunteers by Lymphoprep density gradient centrifugation, followed by lysis of residual erythrocytes with isotonic buffer solution of ammonium chloride. CD14+ cells are isolated by positive selection using MACS® technology and CD14 MicroBeads (Miltenyi Biotec) according to manufacturer's instructions. The isolated monocytes are differentiated into dendritic cells by incubation for 5 days in RPMI-1640 medium supplemented with 10% fetal bovine serum (FBS), 50 ng/mL GM-CSF and 35 ng/mL IL-4. After 5 days the DCs are seeded in 96-well plates in DMEM supplemented with 10% charcoal stripped FBS, GM-CSF and IL-4. The following day cells are triggered with LPS and IFNγ. After 24 h of incubation medium is replaced with DMEM F-12 medium supplemented with 6 mg/mL L-tryptophan and 10% charcoal stripped FBS. Compounds are added to the cells and incubated for 24 h at 37° C., 5% CO2, 95% humidity. Compounds are tested at 7 consecutive 4-fold dilutions starting from 30 μM in duplicate.
(§2) At the end of incubation concentration of kynurenine in cell supernatants is determined by LC-MS/MS. In parallel, cell viability is assessed by measurement of ATP by use of CellTiter Glo assay (Promega) according to manufacturer's protocol.
Cell viability results are analysed in Microsoft Excel and expressed as fold change over untreated control.

In the next data set the test system is SK-OV-3 cells. Kind of data set: Effect of compounds on tryptophan catabolism in SK-OV-3 cell line (inhibition of kynurenine production, LC-MS/MS). In kind it is cell-based. Particulars: for IC50: Homo sapiens, SK-OV-3, 24 h, SK-OV-3 cell line, 24 h incubation, kynurenine in supernatant by LC-MS/MS, read-out: IC50 Ranges (ic50 values for inhibition of Kynurenine production). In short, it runs like this:
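Kynurenine in supernatants quantified by LC-MS/MS after 24 h compound exposure (37 °C; top 30 μM, eight 3-fold steps, duplicate) in DMEM F-12 containing 6 mg/mL L-tryptophan. Cells pre-plated overnight in McCoy's 5A with 10% FBS. Viability checked in parallel by ATP luminescence.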

The target in the next data set is T1, TDO2 enzyme (Homo sapiens, UniProt P48775).
T1 construct: purchased Netherlands Translational Research Center B.V. NTRC-hTDO-1K
As to the kind of experiment: TDO2 enzyme inhibition assay (hTDO2 assay kit, NFK-green). Particulars: TDO2 enzyme 50 nM, tryptophan 200 μM, top concentration 30 μM; read-out: TDO2 Biochemical assay IC50. Here is the method:
The effect of compounds on TDO2 enzymatic activity was assess by use of an hTDO2 assay kit (Netherlands Translational Research Center B.V., Cat #NTRC-hTDO-1K). TDO2 enzyme and tryptophan substrate are diluted in assay buffer. Compounds are tested at 8 consecutive 3-fold dilutions starting from 30 μM. 267 nL of compound is added per well of a 384-well plate followed by addition of 10 μL of assay buffer. TDO2 enzyme is added at a final concentration of 50 nM and pre-incubated for 60 min at room temperature in the dark. Tryptophan substrate solution is then added at final concentration of 200 μM to all wells and the plate incubated for 15 min at RT in the dark. Finally NFK-green reagent is added at ⅕ of total reaction volume and incubated for 4 h at RT in the dark. After incubation fluorescence is measured at Ex405 nm-Em535 nm using EnVision plate reader.
(§3) IC50 values are determined using GraphPad Prism software 5.04 for Windows by plotting percent of inhibition against log 10 concentrations of compounds using a four-parametric sigmoidal curve with a variable slope.

For data set [2], the system named is monocyte-derived dendritic cells. As to the kind of experiment: Effect of compounds on tryptophan catabolism in monocyte-derived dendritic cells (kynurenine production). To be noted: Homo sapiens, Dendritic cell; dendritic cells triggered with LPS and IFNγ, 24 h with compound. It is filed as cell-based. As for the experimental part:
as §1, §2
Inhibition of Kyn production is calculated using the following formula:
(1−(Kyn conc. cmpd.−Kyn conc. medium)/(Kyn conc. medium with cells−Kyn conc. medium))·100
IC50 values are determined using GraphPad Prism software 5.04 for Windows, by plotting percent of inhibition against log 10 concentrations of compounds using a four-parametric sigmoidal curve with a variable slope.

In another data set the target is T2, IDO1 enzyme (Homo sapiens, UniProt P14902).
T2 construct: purchased Netherlands Translational Research Center B.V. NTRC-hIDO-1K
As to the kind of experiment: IDO1 enzyme inhibition assay (hIDO assay kit, NFK-green). To be noted: IDO1 enzyme 25 nM, tryptophan 100 μM, top concentration 30 μM; read-out: IDO1 Biochemical assay IC50. As for the experimental part: The effect of compounds on IDO1 enzymatic activity was assessed by use of a hIDO assay kit (Netherlands Translational Research Center B.V., Cat #NTRC-hIDO-1K). IDO1 enzyme and tryptophan substrate are diluted in assay buffer. Compounds are tested at 8 consecutive 3-fold dilutions starting from 30 μM. 267 nL of compound is added per well of a 384-well plate followed by addition of 10 μL of assay buffer. IDO1 enzyme is added at a final concentration of 25 nM and pre-incubated for 30 min at room temperature in the dark. Tryptophan substrate solution is then added at final concentration of 100 μM to all wells and the plate incubated for 60 min at RT in the dark. Finally NFK-green reagent is added at ⅕ of total reaction volume and incubated for 4 h at RT in the dark. After incubation fluorescence is measured at Ex405 nm-Em535 nm using EnVision plate reader.
as §3

The test system of data set [3] is IDO1 protein in SK-OV-3 cells. As to the kind of experiment: Effect of compounds on IDO1 expression in SK-OV-3 cell line (Western analysis, normalised to GAPDH). It is filed as cell-based. Particulars: 24 hours exposure. As for the experimental part:
SK-OV-3 cells are seeded in 24-well plates in McCoy's 5A medium supplemented with 10% FBS at density of 250000 cells per well and incubated overnight at 37° C., 5% CO2, 95% humidity. The following day growth medium is replaced with DMEM F-12 medium containing 6 mg/mL L-tryptophan. Compounds are added to the wells and the plate is incubated for 24 h at 37° C., 5% CO2, 95% humidity. At the end of incubation medium is removed, cells are washed and then lysed in RIPA buffer. Protein concentrations in the samples are determined using BCA method (Thermo Scientific) and adjusted to 0.5 mg/mL. Western analysis is performed on the Wes system (Protein Simple) using IDO1 (Cell Signalling; Cat #12006S) and GAPDH (Abcam, Cat #ab9485) antibodies. Expression of IDO1 is normalised to GAPDH.

T1 sequence (P48775 whole entry): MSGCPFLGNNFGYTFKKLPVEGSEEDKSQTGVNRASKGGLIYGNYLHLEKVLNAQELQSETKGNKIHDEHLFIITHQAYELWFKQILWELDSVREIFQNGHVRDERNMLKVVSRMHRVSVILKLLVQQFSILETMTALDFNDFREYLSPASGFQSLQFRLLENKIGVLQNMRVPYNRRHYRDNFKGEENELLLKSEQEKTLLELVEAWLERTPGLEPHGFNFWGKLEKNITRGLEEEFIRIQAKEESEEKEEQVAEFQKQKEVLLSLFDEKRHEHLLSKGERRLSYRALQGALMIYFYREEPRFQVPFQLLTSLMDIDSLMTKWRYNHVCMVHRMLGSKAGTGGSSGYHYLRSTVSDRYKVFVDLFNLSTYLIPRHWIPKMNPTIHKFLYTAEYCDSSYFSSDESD
T2 sequence (P14902 whole entry): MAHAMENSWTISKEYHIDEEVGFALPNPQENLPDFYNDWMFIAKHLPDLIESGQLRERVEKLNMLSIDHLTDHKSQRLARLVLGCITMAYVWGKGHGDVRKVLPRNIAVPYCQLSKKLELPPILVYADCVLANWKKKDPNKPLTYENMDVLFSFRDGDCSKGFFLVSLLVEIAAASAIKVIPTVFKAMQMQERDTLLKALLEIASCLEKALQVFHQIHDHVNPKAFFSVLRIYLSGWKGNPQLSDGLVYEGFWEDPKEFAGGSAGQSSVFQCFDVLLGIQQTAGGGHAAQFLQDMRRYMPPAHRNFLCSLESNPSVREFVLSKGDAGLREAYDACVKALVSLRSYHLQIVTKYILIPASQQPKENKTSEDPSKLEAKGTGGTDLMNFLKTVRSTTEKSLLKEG

Usually IC50 stands for the concentration that inhibits the measured activity by half. As to `Cc1ccc(CN(C(=O)Nc2ccc(C#N)cc2)C2CCCC2)o1` [Compound 80, 3-(4-cyanophenyl)-1-cyclopentyl-1-[(5-methyl-2-furyl)methyl]urea], the Cell viability at 30 uM (% of untreated control) in data set [1] was determined as 112%. The IC50 was less than 100 nM with SK-OV-3 cells, more than 30 µM on TDO2 enzyme, 26 nM in data set [2] and more than 30 µM at IDO1 enzyme.

In the case of `Cc1ccc(CN(C(=O)Nc2ccc(Cl)cc2)C2CCC2)o1` [Compound 83, 3-(4-chlorophenyl)-1-cyclobutyl-1-[(5-methyl-2-furyl)methyl]urea], the Cell viability at 30 uM (% of untreated control) in data set [1] was 89%. Also, the IC50 with SK-OV-3 cells was less than 100 nM; on TDO2 enzyme, more than 30 µM; in data set [2] it was 130 nM; on IDO1 enzyme, more than 30 µM.

As for `Cc1ccc(CN(C(=O)Nc2ccc(Cl)cc2)C2CCCC2)o1` [Compound 137, 3-(4-chlorophenyl)-1-cyclopentyl-1-[(5-methyl-2-furyl)methyl]urea], the Cell viability at 30 uM (% of untreated control) in data set [1] is 88%. Also, the IC50 with SK-OV-3 cells is less than 100 nM; on TDO2 enzyme it was more than 30 µM; in data set [2], 40 nM; on IDO1 enzyme, more than 30 µM.

For `Cc1ncc(CN(C(=O)Nc2ccc(Cl)cc2)C2CCCC2)o1` [Compound 144, 3-(4-chlorophenyl)-1-cyclopentyl-1-[(2-methyloxazol-5-yl)methyl]urea], the Cell viability at 30 uM (% of untreated control) in data set [1] came out at 109%. The IC50 in the data set on SK-OV-3 cells is 100 to 500 nM; on TDO2 enzyme it was more than 30 µM; in data set [2], 380 nM; at IDO1 enzyme it was more than 30 µM.

For `N#Cc1cccc(CN(C(=O)Nc2ccc(Cl)cc2)C2CCCC2)c1` [Compound 147, 3-(4-chlorophenyl)-1-[(3-cyanophenyl)methyl]-1-cyclopentyl-urea], in data set [1], the Cell viability at 30 uM (% of untreated control) amounted to 122%. The IC50 in the data set on SK-OV-3 cells was less than 100 nM; on TDO2 enzyme it was more than 30 µM; in data set [2], 70 nM.

For the molecule `Cc1ccc(CN(C(=O)Nc2ccc(F)cc2)C2CCC2)o1` [Compound 82, 1-cyclobutyl-3-(4-fluorophenyl)-1-[(5-methyl-2-furyl)methyl]urea], the Cell viability at 30 uM (% of untreated control) in data set [1] is 85%. Moreover, the IC50 in the data set on SK-OV-3 cells is 100 to 500 nM; in data set [2] it was 300 nM.

In the case of `N#Cc1ccc(NC(=O)N(Cc2cccc(C(F)(F)F)c2)C2CCCC2)cc1` [Compound 89, 3-(4-cyanophenyl)-1-cyclopentyl-1-[[3-(trifluoromethyl)phenyl]methyl]urea], the Cell viability at 30 uM (% of untreated control) in data set [1] is 81%. Besides, the IC50 is less than 100 nM in the data set with SK-OV-3 cells and 65 nM in data set [2].

On to `O=C(Nc1ccc(F)c(F)c1)N(Cc1ccc(F)c(OC(F)(F)F)c1)C1CCCC1` [Compound 141, 1-cyclopentyl-3-(3,4-difluorophenyl)-1-[[4-fluoro-3 (trifluoromethoxy)phenyl]methyl]urea], for which the Cell viability at 30 uM (% of untreated control) in data set [1] is 90%. The concentration for half-maximal inhibition (IC50) with SK-OV-3 cells is less than 100 nM; in data set [2], 470 nM.

For the molecule `O=C(Nc1ccc(Cl)cc1)N(Cc1cccc(C(F)(F)F)c1)C1CCC1` [Compound 90, 3-(4-chlorophenyl)-1-cyclobutyl-1-[[3-(trifluoromethyl)-phenyl]methyl]urea], in data set [1], the Cell viability at 30 uM (% of untreated control) was found to be 67%. Besides, the concentration for half-maximal inhibition (IC50) was less than 100 nM in the data set on SK-OV-3 cells, more than 30 µM on TDO2 enzyme and 66 nM in data set [2].

With `O=C(Nc1ccc(Cl)cc1)N(Cc1ccnc(C(F)(F)F)c1)C1CCCC1` [Compound 148, 3-(4-chlorophenyl)-1-cyclopentyl-1-[[2-(trifluoromethyl)-4-pyridyl]methyl]urea], the Cell viability at 30 uM (% of untreated control) in data set [1] was found to be 103%. In addition, the values for the IC50 (in the data set with SK-OV-3 cells; in data set [2]) were less than 100 nM and 150 nM, respectively.

Take `C#Cc1ccc(NC(=O)N(Cc2ccc(C)o2)C2CCCC2)cc1` [Compound 102, 1-cyclopentyl-3-(4-ethynylphenyl)-1-[(5-methyl-2-furyl)methyl]urea]: the “reduction in IDO1 protein in SKOV-3 cells (FIG. 1a)” value in data set [3] is recorded as “dose-dependent reduction in IDO1 protein”. The IC50 was less than 100 nM in the data set with SK-OV-3 cells and more than 30 µM on TDO2 enzyme. Further, the “inhibition of kynurenine production by SKOV-3 (FIG. 1b)” value in the data set with SK-OV-3 cells (SKOV-3 cells, 24 hours exposure) is reported as “dose-dependent inhibition of kynurenine production”.
